One assay has as its target T1, bacterial NAD synthetase enzyme (Bacillus subtilis, UniProt P08164).
T1 sequence (P08164 2-272 limits assumed): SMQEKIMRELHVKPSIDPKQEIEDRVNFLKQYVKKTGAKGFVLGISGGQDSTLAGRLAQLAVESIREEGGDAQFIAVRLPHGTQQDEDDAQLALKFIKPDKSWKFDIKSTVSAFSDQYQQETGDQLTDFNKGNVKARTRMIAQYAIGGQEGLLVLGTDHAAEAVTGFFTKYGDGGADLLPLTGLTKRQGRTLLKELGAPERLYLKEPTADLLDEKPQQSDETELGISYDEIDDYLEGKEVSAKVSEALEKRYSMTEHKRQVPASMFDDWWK
Description: biochemical. Type of assay: biochemical.
Details: not given
The molecule `C[N+](C)(C)c1ccc(CC(=O)OCCCCCCCCOc2cccc([N+](=O)[O-])c2)cc1` [Compound 1085] displayed an IC50 of 138 µM and an inhibition at 200 µM of 87%.

In turn, `C[N+](C)(C)c1cccc(C(=O)OCCCCCCCc2cc3ccc(C(F)(F)F)cc3[nH]2)c1` [Compound 869] registered an IC50 of 40 µM.

The molecule `COC(=O)c1cc2ccccc2n1CCCCCCCCOC(=O)c1ccc[n+](C)c1` [Compound 973] gave a concentration for half-maximal inhibition (IC50) of 45 µM and an inhibition at 100 µM of 97.8%.

Regarding `CC(=O)c1ccc(OCCCCCCCCOC(=O)Cc2ccc([N+](C)(C)C)cc2)cc1` [Compound 1078], 123 µM corresponded to half-maximal inhibition (IC50) and 200 µM produced 68% inhibition.

Consider `COC(=O)c1cc2ccccc2n1CCCCCCCOC(=O)c1ccc[n+](C)c1` [Compound 972], for which 40 µM corresponded to half-maximal inhibition (IC50) and the inhibition at 100 µM came out at 96.8%.

For the molecule `c1ccc(Oc2ccc3[nH]c(CCCC[n+]4ccccc4)cc3c2)cc1` [Compound 349], the IC50 is 75 µM and testing at 100 µM gave an inhibition of 86.6%.

On to `C[N+](C)(C)c1ccc(CC(=O)OCCCCCCCCn2ccc3ccccc32)cc1` [Compound 981], for which the IC50 came out at 60 µM and at 200 µM the inhibition was 95.2%.

Staying with this assay, now noted: compound at 0.1 mM (Table 314).
Take `Fc1cc(F)c2[nH]c(CCCCCCC[n+]3ccccc3)cc2c1` [Compound 304]: the “% Inhibition” value turned out to be 29.48%.

`CCCCc1ccc2[nH]c(CCCCC[n+]3ccccc3)cc2c1` [Compound 314]: the “% Inhibition” value was determined as 9.19%.

With `c1ccc(Oc2ccc3[nH]c(CCCCCCC[n+]4ccccc4)cc3c2)cc1` [Compound 352], the “% Inhibition” value came to 32.69%.

Take `Fc1ccc2[nH]c(CCCCCCC[n+]3ccccc3)cc2c1` [Compound 346]: the “% Inhibition” value is reported as 42.57%.

In the case of `c1ccc(-c2ccc3[nH]c(CCCCCCC[n+]4ccccc4)cc3c2)cc1` [Compound 328], the “% Inhibition” value was 47.85%.

For the molecule `c1ccc(-c2ccc3[nH]c(CCCC[n+]4ccccc4)cc3c2)cc1` [Compound 325], the “% Inhibition” value was 53.22%.

`CCCCc1ccc2[nH]c(CCCC[n+]3ccccc3)cc2c1` [Compound 313]: the “% Inhibition” value is listed as 27.37%.

Take `c1ccc2[nH]c(CCCCCCCC[n+]3cccc4ccccc43)cc2c1` [Compound 395]: the “% Inhibition” value was determined as 20.85%.

Take `C[N+](C)(C)c1cccc(C(=O)OCCCCCCCc2cc3cc(C(=O)c4ccccc4)ccc3[nH]2)c1` [Compound 881]: the “% Inhibition” value was determined as 90.89%.

Take `CCCCc1ccc2[nH]c(CCCCCCCC[n+]3ccccc3)cc2c1` [Compound 317]: the “% Inhibition” value came out at 25.04%.

The same assay, now with this note: compound at 0.2 mM (Table 312A).
As for `Cc1ccc2[nH]c(CCCC[n+]3ccc4ccccc4c3)cc2c1` [Compound 511], the “% Inhibition” value is 11.02%.

As to `COc1ccc2c(ccn2CCCCOC(=O)c2ccc[n+](C)c2)c1` [Compound 760], the “% Inhibition” value was found to be 2.28%.

As to `O=[N+]([O-])c1ccc2[nH]c(CCCCCCCC[n+]3ccccc3)cc2c1` [Compound 335], the “% Inhibition” value was 3.28%.

As for `O=[N+]([O-])c1cc([N+](=O)[O-])c2[nH]c(CCCCCCC[n+]3ccc4ccccc4c3)cc2c1` [Compound 526], the “% Inhibition” value is 42.77%.

As for `O=C(O)c1ccc2[nH]c(CCCCC[n+]3cccc4ccccc43)cc2c1` [Compound 494], the “% Inhibition” value was found to be 17.44%.

For `c1ccc(-c2ccc3[nH]c(CCCCCC[n+]4cccc5ccccc54)cc3c2)cc1` [Compound 435], the “% Inhibition” value came to 17.24%.

In the case of `O=[N+]([O-])c1cc([N+](=O)[O-])c2[nH]c(CCC[n+]3ccc4ccccc4c3)cc2c1` [Compound 522], the “% Inhibition” value was found to be 35.74%.

As for `c1ccc(Oc2ccc3[nH]c(CCCCCC[n+]4ccc5ccccc5c4)cc3c2)cc1` [Compound 567], the “% Inhibition” value worked out at 22.51%.

For the molecule `COc1ccc2[nH]c(CCCCCCC[n+]3ccc4ccccc4c3)cc2c1` [Compound 592], the “% Inhibition” value is given as 18.70%.

Regarding `O=C(O)c1ccc2[nH]c(CCC[n+]3ccc4ccccc4c3)cc2c1` [Compound 600], the “% Inhibition” value turned out to be 3.10%.

As to `Cc1ccc2[nH]c(CCCCCCCC[n+]3ccc4ccccc4c3)cc2c1` [Compound 515], the “% Inhibition” value was determined as 30.39%.

For `O=C(O)c1ccc2[nH]c(CCCCCCC[n+]3cccc4ccccc43)cc2c1` [Compound 496], the “% Inhibition” value worked out at 36.97%.

For `CC(C)c1ccc2[nH]c(CCCCCCCC[n+]3ccccc3)cc2c1` [Compound 323], the “% Inhibition” value is listed as 28.08%.

For `CC(C)c1ccc2[nH]c(CCCCCCC[n+]3cccc4ccccc43)cc2c1` [Compound 430], the “% Inhibition” value was 1.20%.

`c1ccc(-c2ccc3[nH]c(CCCCCCC[n+]4cccc5ccccc54)cc3c2)cc1` [Compound 436]: the “% Inhibition” value came to 11.57%.

As for `FC(F)(F)c1ccc2[nH]c(CCCC[n+]3ccc4ccccc4c3)cc2c1` [Compound 577], the “% Inhibition” value is given as 20.58%.

Take `O=C(OCCCCCCCc1cc2ccc(C(F)(F)F)cc2[nH]1)c1ccncc1` [Compound 697]: the “% Inhibition” value was found to be 4.28%.

Take `FC(F)(F)c1ccc2cc(CCCCCCC[n+]3ccccc3)[nH]c2c1` [Compound 292]: the “% Inhibition” value stood at 44.36%.

Consider `CC(=O)c1ccc2[nH]c(CCCC[n+]3ccc4ccccc4c3)cc2c1` [Compound 583], for which the “% Inhibition” value is given as 31.37%.

For the molecule `O=[N+]([O-])c1ccc2[nH]c(CCC[n+]3ccccc3)cc2c1` [Compound 330], the “% Inhibition” value is on record as 23.96%.

On to `c1ccc2c[n+](CCCCc3cc4ccccc4[nH]3)ccc2c1` [Compound 499], for which the “% Inhibition” value is reported as 25.59%.

Take `CC(=O)c1ccc2[nH]c(CCCCCCCC[n+]3ccccc3)cc2c1` [Compound 371]: the “% Inhibition” value turned out to be 43.85%.

`O=C(c1ccccc1)c1ccc2[nH]c(CCCCCCC[n+]3cccc4ccccc43)cc2c1` [Compound 466]: the “% Inhibition” value is listed as 5.79%.

For `c1cc[n+](CCCCCCCCc2cc3ccccc3[nH]2)cc1` [Compound 287], the “% Inhibition” value is on record as 16.01%.

Take `Fc1cc(F)c2[nH]c(CCCCCCCC[n+]3ccc4ccccc4c3)cc2c1` [Compound 521]: the “% Inhibition” value is given as 29.59%.

As to `COc1ccc2[nH]c(CCCCCCC[n+]3cccc4ccccc43)cc2c1` [Compound 484], the “% Inhibition” value was 39.95%.

Turning to `FC(F)(F)c1ccc2[nH]c(CCCCCCCC[n+]3ccc4ccccc4c3)cc2c1` [Compound 581], the “% Inhibition” value is given as 21.66%.

On to `O=[N+]([O-])c1cc([N+](=O)[O-])c2[nH]c(CCCCCC[n+]3ccc4ccccc4c3)cc2c1` [Compound 525], for which the “% Inhibition” value is 8.39%.

In the case of `FC(F)(F)c1ccc2[nH]c(CCCCCCCC[n+]3cccc4ccccc43)cc2c1` [Compound 473], the “% Inhibition” value is 15.06%.

On to `CC(=O)c1ccc2[nH]c(CCCCCCC[n+]3ccc4ccccc4c3)cc2c1` [Compound 586], for which the “% Inhibition” value was 2.01%.

The assay is the same for the next values; noted with them: compound at 0.2 mM (Table 312B).
As to `O=C(OCCCCCCCCOc1ccc(Oc2ccccc2)cc1)c1cccnc1` [Compound 1016], the “% Inhibition” value came to 29%.

`COc1cccc(OCCCCCCCCOC(=O)c2ccc[n+](C)c2)c1` [compound 1057]: the “% Inhibition” value came to 59%.

For the molecule `CC(=O)c1cccc(OCCCCCCCCOC(=O)c2cccnc2)c1` [Compound 1015], the “% Inhibition” value was 15%.

With `CC(=O)c1ccc(OCCCCCCCCOC(=O)c2ccc[n+](C)c2)cc1` [compound 1058], the “% Inhibition” value is recorded as 18%.

With `C[N+](C)(C)c1ccc(CC(=O)OCCCCCCCCOc2cccc(N3CCOCC3)c2)cc1` [Compound 1092], the “% Inhibition” value came out at 60%.

Turning to `C[n+]1cccc(C(=O)OCCCCCCCCOc2ccc([N+](=O)[O-])cc2)c1` [compound 1053], the “% Inhibition” value amounted to 72%.

Consider `CN(C)c1ccc(CC(=O)OCCCCCCCCOc2ccc(C=CC(=O)c3ccccc3)cc2)cc1` [Compound 1034], for which the “% Inhibition” value was determined as 30%.

For `C[n+]1cccc(C(=O)OCCCCCCCCOc2ccc(N3C(=O)c4ccccc4C3=O)cc2)c1` [compound 1071], the “% Inhibition” value was 55%.

As to `COc1cccc(OCCCCCCCCOC(=O)Cc2ccc([N+](C)(C)C)cc2)c1` [Compound 1077], the “% Inhibition” value is 73%.

Turning to `CN(C)c1ccc(CC(=O)OCCCCCCCCOc2ccccc2N2CCCC2)cc1` [Compound 1046], the “% Inhibition” value is listed as 2%.

Regarding `CC(=O)c1cccc(OCCCCCCCCOC(=O)c2ccc[n+](C)c2)c1` [compound 1069], the “% Inhibition” value came to 36%.

The same assay, now with this note: compound at 0.25 mM.
Take `C[n+]1cccc(C(=O)OCCCCc2cc3ccc(C(F)(F)F)cc3[nH]2)c1` [Compound 913]: the “% Inhibition” value is on record as 7.6%.

For `C[N+](C)(C)c1ccc(C(=O)OCCCCc2cc3cc(C(=O)c4ccccc4)ccc3[nH]2)cc1` [Compound 895], the “% Inhibition” value amounted to 95.7%.

As to `C[N+](C)(C)c1ccc(C(=O)OCCCCCCCCc2cc3ccc(C(F)(F)F)cc3[nH]2)cc1` [Compound 885], the “% Inhibition” value amounted to 98.0%.

Consider `C[n+]1cccc(CC(=O)OCCCCc2cc3cc(Oc4ccccc4)ccc3[nH]2)c1` [Compound 931], for which the “% Inhibition” value turned out to be 15.8%.

Regarding `C[n+]1ccc(C(=O)OCCCCCCCCc2cc3cc(Oc4ccccc4)ccc3[nH]2)cc1` [Compound 903], the “% Inhibition” value is 95.5%.

As for `C[n+]1ccc(C(=O)OCCCCc2cc3cc(Oc4ccccc4)ccc3[nH]2)cc1` [Compound 901], the “% Inhibition” value was 32.8%.

Consider `C[N+](C)(C)c1cccc(C(=O)OCCCCc2cc3ccc(C(F)(F)F)cc3[nH]2)c1` [Compound 868], for which the “% Inhibition” value was 13.5%.

`C[n+]1ccc(C(=O)OCCCCc2cc3cc(C(=O)c4ccccc4)ccc3[nH]2)cc1` [Compound 910]: the “% Inhibition” value was determined as 88.5%.

For the molecule `CC(=O)c1ccc2[nH]c(CCCCCCCOC(=O)c3ccc([N+](C)(C)C)cc3)cc2c1` [Compound 893], the “% Inhibition” value stood at 13.8%.

For orientation: IC50 means the midpoint of a concentration-inhibition curve. In general, inhibition refers to the drop in the measured response relative to a control, in per cent. Read a low inhibition as a response near the control. By % Inhibition is commonly meant the drop in the measured response relative to a control, in per cent. Lower therefore signals a response near the control.

The values above are taken from patent publication US6727237B2, “Inhibitors of bacterial NAD synthetase” (priority 1998, dated 2004).
